Structures can show the parent of a compound that is named as a salt.
Columns and labels:
[1] = Cell toxicity
[2] = target: T1, NK-1 receptor (Homo sapiens, UniProt P25103); assay: Tango GPCR cell-based assay, TACR1-bla U2OS cells, NK-1 receptor inhibitors; conditions: 1 nM SAR9 Substance P agonist
T1 construct: host or cells: U2OS (Tango TACR1-bla)
Description: Various known high through-put screening assays can also be used to determine the inhibitory effects of a material on the NK-1 receptors.
One exemplary assay is the Tango™ G-Protein Coupled Receptors (GPCR) cell-based assays by Invitrogen. First, TACR1-bla U2OS cells (from Invitrogen) are cultured in McCoy's medium. The cultured cells are then plated in DMEM into 96-well plates (15,125 cells/well in 90 uL/well). After 16-24 hours, the cells are treated with test materials or positive control antagonist (which is 100 nM Aprepitant) and then incubated for 30-60 minutes at 37° C. in 5% CO2. Subsequently, the cells are treated with 1 nM SAR9 Substance P agonist and incubated again for 5 hours at 37° C. in 5% CO2. The plates are removed from the incubator and equilibrated at room temperature for 15 minutes. During the equilibration step, the LiveBlazer substrate detection solution (from Invitrogen) is prepared. Six times of substrate mixture is added to each well, followed by incubating the plates in the dark at room temp for 2 hours. The plates are read by the Envision microplate reader in 2 channels using the “Geneblazer 451” protocol, which include a blue channel (Excitement at 405 and Emission at 460) and a green channel (Excitement at 405 and Emission at 535).
FIGS. 45-70 show the NK-1 dosage response curves of compounds described hereinabove with high NK-1 inhibitory effect.

[3] = target: T2, h5HT3A receptor (Homo sapiens, UniProt P46098); assay: Assays for screening 5-HT3a receptor inhibitors (FLIPR calcium assay or aequorin-assisted serotonin receptor assay; dosage response curves); format: cell-based
T2 construct: expressed in transfected cells
T2 sequence (P46098 24-478): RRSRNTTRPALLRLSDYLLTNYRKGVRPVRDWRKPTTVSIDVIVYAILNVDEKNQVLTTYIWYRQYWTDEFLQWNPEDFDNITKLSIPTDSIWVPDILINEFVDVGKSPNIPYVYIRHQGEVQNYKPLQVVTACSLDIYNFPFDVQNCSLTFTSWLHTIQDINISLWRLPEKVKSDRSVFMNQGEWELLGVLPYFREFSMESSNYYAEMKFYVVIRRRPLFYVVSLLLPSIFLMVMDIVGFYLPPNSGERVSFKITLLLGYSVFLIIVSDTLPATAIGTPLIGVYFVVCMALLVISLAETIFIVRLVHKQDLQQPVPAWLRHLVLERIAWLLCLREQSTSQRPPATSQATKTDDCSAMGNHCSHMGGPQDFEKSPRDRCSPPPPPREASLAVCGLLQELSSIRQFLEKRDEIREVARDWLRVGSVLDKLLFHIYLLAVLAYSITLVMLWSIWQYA
Excerpt: Various known high through-put screening assays can be used to determine the inhibitory effects of a material on the 5-HT3a receptors.
Due to activation of 5HT3 receptor following calcium and sodium influx and the subsequent rapid intracellular calcium and sodium increase, a calcium indicator (e.g., Fluo-4 AM) or a sodium dye can therefore be readily used to detect influx Ca^+2 or Na^+ signal using the Flourometric Imaging Plate Reader (FLIPR) assay to identify agonists or antagonists of 5-HT3a receptors.
The 5-HT3a FLIPR assay can specifically be conducted by the following steps. First, […] (human embryonic kidney) cells stably expressed with h5HT3A receptor are grown in 16-18 ml growth medium in a 75 cm^2 flask for 2-3 days at 37° C. in a mammalian cell culture incubator with 5% CO2 and 90% humidity. The growth medium may contain, for example, DMEM/F12 (1:1, Invitrogen 11039) supplemented with 10% FBS (fetal bovine serum), 100 μg/ml Antibiotic/Antimycotic, and 150 ug/ml G418. The cell medium is then transferred to a 50 ml tube, and the cells are washed with 10 ml PBS. Subsequently, 2 ml of 0.05% Trypsin-EDTA is added to detach cells, and the above cell medium is added back to flask to inactivate trypsin. Next, the cells are transferred back to the above 50 ml tube, which is centrifuged at 850 rpm for 3 minutes to remove medium. The cells obtained from centrifugation are then re-suspended with growth medium at 1-1.5 ml per flask cells. One vial of Fluo-4 AM (calcium indicator, 50 ug) is subsequently dissolved with 20 ul of Pluronic F-127, and 10 ul of Fluo-4 AM solution per flask cells is added (1 vial of Fluo-4 AM solution, 20 ul, is good for 2 flask of cells). The cells are then stained with Fluo-4 AM for 30 min at room temperature with gently shaking on a shaker, followed by addition of 45 ml of the assay buffer [HBSS with CaCl2 and MgCl2 (Invitrogen 14025), 20 mM HEPES, pH7.2] to wash cells once. Centrifugation is carried out once more at 850 rpm for 3 minutes to remove assay buffer. The resulting cell pellet is again re-suspended in Assay buffer (per flask cells with 18-20 ml assay buffer). Ninety microliters of cells (50K cells/well) is loaded in the 96-well plates that are pre-loaded with the compounds to be tested (10 ul of 1 mM test materials, the final concentration of the test materials will be 100 uM). The plates are placed at room temperature for 15-30 min in dark and then transferred to FLIPR-384 instrument (Molecular Devices). […] The calcium signal of the test plates is finally recorded by the FLIPR program. The average and standard deviations are calculated using Excel, and the background (buffer) is subtracted. The percentage (%) inhibition is then calculated as
[formula] A test material will be considered as having an inhibitory effect against the 5-HT3a receptor if the percentage inhibition calculated is greater than 40%.
Aequorin is a photo-protein originating from the Jellyfish Aequorea Victoria. It is initially translated as an apo-enzyme requiring the hydrophobic group coelenterazine to initiate the conversion to aequorin. Upon binding of calcium, the coelenterazine is oxidized by aequorin into coelenteramide (BFP) resulting in the emission of blue light and CO2. Therefore, it is particularly useful for visualizing or detecting influx Ca^+2 signal.
After 18-24 h of culture, the cells are detached gently by flushing with their cell culture medium. Washing with an additional 10 mLs of cell culture media will ensure that optimum number of cells is captured. The cells are then centrifuged at 150×g, counted and re-suspended at 1×10^6 cells/mL in BSA medium [DMEM/Ham's F12 (with 15 mM HEPES, L-glutamine, without phenol red) culture medium (Invitrogen, Cat. No. 11039-021)+10% protease-free BSA (Sigma Aldrich, Cat. No. A9205) in H2O with a final BSA concentration of 0.1%] in a Falcon tube. Coelenterazine is added at a final concentration of 5 μM in assay medium.

T1 sequence (P25103 whole entry): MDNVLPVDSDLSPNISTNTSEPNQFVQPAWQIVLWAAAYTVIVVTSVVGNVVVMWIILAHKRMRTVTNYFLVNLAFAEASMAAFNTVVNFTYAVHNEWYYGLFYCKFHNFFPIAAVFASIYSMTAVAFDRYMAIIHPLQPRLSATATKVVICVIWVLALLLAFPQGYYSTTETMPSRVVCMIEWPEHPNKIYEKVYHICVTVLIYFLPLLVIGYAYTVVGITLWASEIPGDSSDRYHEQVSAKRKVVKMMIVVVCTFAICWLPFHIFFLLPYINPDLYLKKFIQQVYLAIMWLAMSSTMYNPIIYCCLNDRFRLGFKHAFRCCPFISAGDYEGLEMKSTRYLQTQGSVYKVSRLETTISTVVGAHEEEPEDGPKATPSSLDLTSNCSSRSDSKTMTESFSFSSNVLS

NK-1 receptor inhibitory effect [2] | 5-HT3a receptor inhibitory effect [3] | Molecule | cell toxicity [1]
surprisingly high |  | CC/C=C\CC/C=C/CO [Trans-2,cis-6-nonadienol] | little or no
 | surprisingly high | O=c1cc(-c2ccccc2)oc2ccccc12 [Flavone] | little or no
 | surprisingly high | CCCCCCCCCCC/C=C\CCCCC(=O)O [Petroselinic acid] | little or no
surprisingly high |  | CC1=CC(=O)c2ccccc2C1=O [Menadione] | little or no
 | surprisingly high | c1ccc(CCCc2ccccn2)cc1 [Cortex pyridine, 2-(3-phenylpropyl)pyridine] | little or no
 | surprisingly high | CCCCCCCCCC1CCCC(=O)O1 (stereo not shown) [Delta-tetradecalactone] | little or no
 | surprisingly high | C=C(C)[C@@H]1CCC2=CC(=O)C[C@@H](C)[C@]2(C)C1 [Nootkatone] | little or no
 | surprisingly high | COc1ccc(-c2coc3cc(O)cc(O)c3c2=O)cc1 [Biochanin A] | little or no
 | surprisingly high | CCCCOCc1ccc(O)c(OC)c1 [Vanillyl butyl ether] | little or no
 | surprisingly high | CCCCCCCCC1CCC(=O)O1 (stereo not shown) [Gamma-dodecalactone] | little or no
 | surprisingly high | CCOc1ccc2c(c1)C(C)=CC(C)(C)N2 [Ethoxyquin] | little or no
 | surprisingly high | CCCCCC/C=C\CCCCCCCC(=O)O [Palmitoleic acid] | little or no
surprisingly high |  | O=c1c(-c2ccc(O)cc2)coc2cc(O)cc(O)c12 [Genistein] | little or no
 | surprisingly high | CCCCCC1C(=O)CCC1CC(=O)OC (stereo not shown) [Methyl dihydrojasmonate] | little or no
surprisingly high |  | CC/C=C/C=C/C=O [Trans,trans-2,4-heptadienal] | little or no
 | surprisingly high | CCCOC(=O)c1ccc(O)cc1 [N-propyl-4-hydroxybenzoate] | 
 | surprisingly high | CCCCCCCC1CCCC(=O)O1 (stereo not shown) [Delta-dodecalactone] | little or no
 | surprisingly high | CC(C)=CCC[C@](C)(O)C1CC=C(C)CC1 (stereo partly shown) [Bisabolol] | little or no
 | surprisingly high | Cc1cc2nc3c(=O)[nH]c(=O)nc-3n(C[C@H](O)[C@H](O)[C@H](O)CO)c2cc1C [Riboflavin VB2, Riboflavin] | 
 | surprisingly high | Vetiverol | little or no
 | surprisingly high | CCCCOC(=O)CC(O)(CC(=O)OCCCC)C(=O)OCCCC [Tributyl citrate] | little or no

The next lines start with the molecule.

Molecule | NK-1 receptor inhibitory effect [2] | 5-HT3a receptor inhibitory effect [3] | cell toxicity [1]
CC1=C(CCC(=O)O)c2cc3[nH]c(cc4nc(cc5[nH]c(cc1n2)c(C)c5C(C)O)C(C)=C4C(C)O)c(C)c3CCC(=O)O (stereo not shown) [Hematoporphyrin dihydrochloride] |  |  | little or no
O=C(CCc1ccc(O)cc1)c1c(O)cc(O)cc1O [Phloretin] |  | surprisingly high | little or no
C[C@@H]1CC[C@H]2C(C)(C)[C@H]3C[C@@]12CC[C@@]3(C)O [(+)-cedrol] |  | surprisingly high | little or no
Cc1c(O)ccc(O)c1C [2,3-dimethyl-1,4-benzenediol] |  | surprisingly high | little or no
CCCCCC(=Cc1ccccc1)CO [Alpha-amylcinnamyl alcohol] |  | surprisingly high | little or no
CCCCCCCC1CC(C)OC1=O (stereo not shown) [3-heptyldihydro-5-methyl-2(3H)-furanone] |  | surprisingly high | little or no
CC(=O)/C=C/C1C(C)=CCCC1(C)C (stereo not drawn) [Alpha-lonone] |  | surprisingly high | little or no
CCCCCCCCC(=O)NCc1ccc(O)c(OC)c1 [Nonivamide] |  | surprisingly high | little or no
CC(C)[C@@H]1CC[C@@H](C)C[C@H]1OCC(O)CO (stereo partly shown) [Menthoxypropanediol] |  | surprisingly high | 
C=C1CC[C@H](O)C/C1=C/C=C1\CCC[C@]2(C)[C@@H]([C@H](C)CCCC(C)C)CC[C@@H]12 [Cholecalciferol VD3, Cholecalciferol] |  | surprisingly high | 
OCCCCCCCCCCCCCCO [1,14-Tetradecanediol] |  | surprisingly high | little or no
CC(=O)C=Cc1ccccc1 [Benzylidenacetone] | surprisingly high |  | 
O=C(/C=C/C=C/c1ccc2c(c1)OCO2)N1CCCCC1 [Piperine] |  |  | little or no
CC(C)=CCCC(C)=CCCC(C)=CC=O [Farnesal] |  | surprisingly high | little or no
CC/C=C\C/C=C\C/C=C\C/C=C\C/C=C\CCCC(=O)O [Eicosapentaenoic acid] |  |  | little or no

Reference: patent US10548935B2, “Composition and method for preventing, reducing, alleviating or treating idiopathic vomiting” (Mars, Incorporated, priority 2013, dated 2020)
